Tests used:
[1] = biological target: VHL co-expressed with Elongins B and C (Homo sapiens (Human), UniProt P40337); assay: Surface Plasmon Resonance Assay; format: binding; settings: SPR measured VHL affinity; geometric mean where more than one measurement
Protocol: Using a Biacore T200, […] tagged VHL co-expressed with Elongins B and C were immobilized to a Biacore SA chip in running buffer without DMSO. Compounds were tested individually at varying concentrations in running buffer (50 mM HEPES pH 7.2, 150 mM NaCl, 0.5 mM TCEP, 0.001% Tween 20, 0.2% PEG3350, 2% DMSO) at 20° C. Sensorgrams were run in order from low to high concentration using a flow rate of 80 μL/min. Association and disassociation times were varied depending on the estimated potency of the compound tested. […] Galdeano et al, J. Med. Chem. 2014, 57, 8657-8663, herein incorporated by reference) which retained greater than 75% of the activity over the course of the run. Analysis of the binding curves and determination of the kinetic parameters were done using evaluation software (Version 2.0, Biacore).

VHL Elongin B/C complex = VHL Elongin B/C complex (Homo sapiens (Human), UniProt P40337); assay: Fluorescence Polarization (FP) VHL Binding Assay; settings: for IC50: VHL binding, FP assay, geometric mean where more than one measurement
Sequence of VHL Elongin B/C complex (P40337 whole entry, looked up, the tested form may be a part): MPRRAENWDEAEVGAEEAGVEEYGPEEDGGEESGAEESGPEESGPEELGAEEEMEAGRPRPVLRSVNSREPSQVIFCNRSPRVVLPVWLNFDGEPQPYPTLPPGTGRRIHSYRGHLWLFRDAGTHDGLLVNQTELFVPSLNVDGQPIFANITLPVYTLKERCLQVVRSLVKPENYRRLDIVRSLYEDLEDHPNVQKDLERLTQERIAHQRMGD
Sequence of VHL Elongin B/C complex (Q15370 whole entry partner, looked up, the tested form may be a part): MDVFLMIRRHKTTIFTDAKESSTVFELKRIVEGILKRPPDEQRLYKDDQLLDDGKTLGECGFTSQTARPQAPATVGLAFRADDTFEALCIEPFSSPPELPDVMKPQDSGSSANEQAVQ
Sequence of VHL Elongin B/C complex (Q15369 whole entry partner, looked up, the tested form may be a part): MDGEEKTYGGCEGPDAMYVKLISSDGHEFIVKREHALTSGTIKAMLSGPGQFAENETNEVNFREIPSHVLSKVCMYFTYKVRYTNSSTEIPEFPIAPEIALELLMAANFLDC
Protocol: The binding of test compounds to the VHL Elongin B/C complex was measured using a fluorescence polarization tracer competition assay. The VHL/Elongin B/C protein complex used in the assay was generated as follows. The coding region for amino acids E55-D213 of human VHL with N-terminal His6 tag with a TEV-protease cleavage site was co-expressed with Elongin B (residues M1-Q118) and Elongin C (Residues M17-C112) in E. coli. […] The purified VHL/Elongin B/C complex was dialyzed into formulation buffer: 20 mM Bis-Tris pH7.0, 150 mM NaCl, 1 mM DTT. A VHL fluorescence polarization probe (prepared in Example 91), consisted of a VHL ligand coupled to carboxytetramethylrhodamine (TAMRA); […] Compounds were prepared as a serial dilution in DMSO at a concentration 25-fold higher than the final desired concentration and acoustically dispensed (400 nl) into a ProxiPlate-384 Plus F, Black 384-shallow well Microplate (Part Number 6008260). DMSO was dispensed into wells designated for “VHL control” (without compound) wells. The “Assay Buffer” consisted of 50 mM Tris pH 8.0, 120 mM NaCl, 0.005% Nonidet P-40, and 1% DMSO (v/v). Assay Buffer containing […] VHL Elongin B/C complex was prepared and 5 μl dispensed using a BioRapTR (Beckman Coulter) into each well of the assay plate. Assay Buffer was also dispensed into “no VHL control” wells using the same method. A “pre-assay” fluorescence measurement was made using an Infinite® M1000 (Tecan) plate reader (Excitation 530 nm, Emission 574 nm, Bandwidth 10 nm). Assay Buffer containing 3.34 nM of the VHL FP probe was prepared in Assay Buffer and 5 μl dispensed into each well of the assay plate using a BioRapTR (Beckman Coulter). The final VHL/Elongin B/C protein concentration is 2.64 nM and the final probe concentration is 1.67 nM. Assay plates were briefly centrifuged and incubated for 1 hour at room temperature. “Post-assay” fluorescence polarization measurements were made as described for the “pre-assay” fluorescence measurement. Fluorescence polarization was calculated for each sample; taking into account the “pre-assay” fluorescence measurements and subtracting the fluorescence signal of the compound/VHL only (“pre-assay”) measurements from the “post-assay” fluorescence polarization measurements, for each plane of polarization. The data were analyzed using Genedata Screener software and normalized to the “no VHL control” and “VHL control” (without compound). IC50 values were calculated using a four parameter curve fit (Robust method).

Sequence of VHL co-expressed with Elongins B and C (P40337 whole entry, looked up): as the sequence (P40337 whole entry, looked up, the tested form may be a part) above
Sequence of VHL co-expressed with Elongins B and C (Q15370 whole entry partner, looked up): as the sequence (Q15370 whole entry partner, looked up, the tested form may be a part) above
Sequence of VHL co-expressed with Elongins B and C (Q15369 whole entry partner, looked up): as the sequence (Q15369 whole entry partner, looked up, the tested form may be a part) above

SMILES	Kd [1] [µM]	IC50 (VHL Elongin B/C complex) [µM]	Kd (VHL Elongin B/C complex; probe binding to VHL/Elongin B/C) [µM]
Cc1cc(C(C(=O)N2C[C@H](O)CC2C2=NC(=O)C(C)(c3ccc(Br)cc3)N2)C(C)C)on1 (single isomer, unassigned) [Example 103.4]	1.09	6.73	
Cc1cc(C(C(=O)N2C[C@H](O)CC2C2=NC(=O)C(C)(c3ccc(-c4cccnc4)cc3)N2)C(C)C)on1 (single isomer, unassigned) [Example 105.2]	113	136	
Cc1cc(C(C(=O)N2C[C@H](O)CC2C2=NC(=O)C(C)(c3ccc(-c4scnc4C)cc3)N2)C(C)C)on1 (single isomer, unassigned) [Example 104.3]	44.6	230	
Cc1cc(C(C(=O)N2C[C@H](O)CC2C2=NC(=O)C(C)(c3ccc(-c4cccnc4C)cc3)N2)C(C)C)on1 (single isomer, unassigned) [Example 106.2]	> 150	> 400	
CC(=O)N[C@H](C(=O)N1C[C@H](O)CC1C1=NC(=O)C(C)(c2ccc(Br)cc2)N1)C(C)(C)C (single isomer, unassigned) [Example 101.3]	332	> 200	
CC(=O)N[C@H](C(=O)N1C[C@H](O)CC1C1=NC(=O)C(C)(c2ccc(-c3scnc3C)cc2)N1)C(C)(C)C (single isomer, unassigned) [Example 102.1]	1.96	6.17	
Cc1cc(C(C(=O)N2C[C@H](O)CC2C2=NC(=O)C(C)(c3ccc(-c4cccnc4C)cc3)N2)C(C)C)on1 (single isomer, unassigned) [Example 106.1]	> 150	> 400	
Cc1cc(C(C(=O)N2C[C@H](O)CC2C2=NC(=O)C(C)(c3ccc(-c4cccnc4C)cc3)N2)C(C)C)on1 (single isomer, unassigned) [Example 106.3]	> 150	> 400	
Cc1cc(C(C(=O)N2C[C@H](O)CC2C2=NC(=O)C(C)(c3ccc(-c4cccnc4)cc3)N2)C(C)C)on1 (single isomer, unassigned) [Example 105.3]	> 150	> 400	
Cc1cc(C(C(=O)N2C[C@H](O)CC2C2=NC(=O)C(C)(C)N2)C(C)C)on1 (single isomer, unassigned) [Example 107.3]	> 150	> 50	
Cc1cc(C(C(=O)N2C[C@H](O)CC2C2=NC(=O)C(C)(c3ccc(-c4scnc4C)cc3)N2)C(C)C)on1 (single isomer, unassigned) [Example 104.1]	35.9	203	
Cc1cc(C(C(=O)N2C[C@H](O)CC2C2=NC(=O)C(C)(c3ccc(-c4cccnc4)cc3)N2)C(C)C)on1 (single isomer, unassigned) [Example 105.4]	1.58	5.39	
Cc1cc(C(C(=O)N2C[C@H](O)CC2C2=NC(=O)C(C)(c3ccc(Br)cc3)N2)C(C)C)on1 (single isomer, unassigned) [Example 103.3]	> 150	292	
Cc1cc(C(C(=O)N2C[C@H](O)CC2C2=NC(=O)C(C)(c3ccc(Br)cc3)N2)C(C)C)on1 (single isomer, unassigned) [Example 103.2]	> 150	> 400	
Cc1cc(C(C(=O)N2C[C@H](O)CC2C2=NC(=O)C(C)(C)N2)C(C)C)on1 (single isomer, unassigned) [Example 107.4]	> 150	> 50	
Cc1cc(C(C(=O)N2C[C@H](O)CC2C2=NC(=O)C(C)(c3ccc(-c4cccnc4C)cc3)N2)C(C)C)on1 (single isomer, unassigned) [Example 106.4]	0.895	2.96	
Cc1cc(C(C(=O)N2C[C@H](O)CC2C2=NC(=O)C(C)(c3ccc(-c4scnc4C)cc3)N2)C(C)C)on1 (single isomer, unassigned) [Example 104.2]	> 150	> 400	
Cc1cc([C@H](C(=O)N2C[C@H](O)C[C@H]2C(=O)NCc2ccc(-c3scnc3C)cc2OCCNC(=O)c2ccc3c(c2)C(=O)OC32c3ccc(N(C)C)cc3Oc3cc(N(C)C)ccc32)C(C)C)on1 [VHL fluorescence polarization probe, (2S,4R)—N-(2-(2-(3′,6′-bis(dimethylamino)-3-oxo-3H-spiro[isobenzofuran-1,9′-xanthene]-5-carboxamido)ethoxy)-4-(4-methylthiazol-5-yl)benzyl)-4-hydroxy-1-((R)-3-methyl-2-(3-methylisoxazol-5-yl)butanoyl)pyrrolidine-2-carboxamide, reference compound]			0.0182
Cc1cc(C(C(=O)N2C[C@H](O)CC2C2=NC(=O)C(C)(C)N2)C(C)C)on1 (single isomer, unassigned) [Example 107.1]	> 150		

Further lines, results first:

Kd [1] [µM]	IC50 (VHL Elongin B/C complex) [µM]	Kd (VHL Elongin B/C complex; probe binding to VHL/Elongin B/C) [µM]	SMILES
≥ 150			Cc1cc([C@@H](C(=O)N2C[C@H](O)C[C@H]2C2=NOC(C)(C)N2)C(C)C)on1 [Example 126.2, (S)-1-((2S,4R)-2-(5,5-dimethyl-4,5-dihydro-1,2,4-oxadiazol-3-yl)-4-hydroxypyrrolidin-1-yl)-3-methyl-2-(3-methylisoxazol-5-yl)butan-1-one]
≥ 150	≥ 400		Cc1cc([C@@H](C(=O)N2C[C@H](O)C[C@H]2C2=NOC(c3ccc(Br)cc3)(C(F)(F)F)N2)C(C)C)on1 (single isomer, unassigned) [Example 133.2]
150			Cc1ncsc1-c1ccc([C@]2(C)NC(C3C[C@@H](O)CN3C(=O)[C@@H]3CCCN3S(C)(=O)=O)=NC2=O)cc1 (single isomer, unassigned) [Example 112.2]
13.9	57.5		Cc1cc(C(C(=O)N2C[C@H](O)CC2C2=NC(=O)C(C)(c3ccc(-c4cccc(=O)n4C)cc3)N2)C(C)C)on1 (single isomer, unassigned) [Example 108.1]
> 0.3	> 400		Cc1cc(C(C(=O)N2C[C@H](O)CC2C2=NC(=O)C(C)(c3ccc(-c4cccc(=O)n4C)cc3)N2)C(C)C)on1 (single isomer, unassigned) [Example 108.4]
≥ 150			Cc1cc([C@@H](C(=O)N2C[C@H](O)C[C@H]2C2=NOC(C)(c3ccccc3)N2)C(C)C)on1 (single isomer, unassigned) [Example 128.1]
≥ 150			Cc1ncsc1-c1ccc([C@]2(C)NC(C3C[C@@H](O)CN3C(=O)[C@H]3CCCN3S(C)(=O)=O)=NC2=O)cc1 (single isomer, unassigned) [Example 120.2]
3.95	11		Cc1cc(C(C(=O)N2C[C@H](O)CC2C2=NC(=O)C(C)(c3ccc(-c4cccc(=O)n4C)cc3)N2)C(C)C)on1 (single isomer, unassigned) [Example 108.2]
> 0.3	> 400		Cc1cc(C(C(=O)N2C[C@H](O)CC2C2=NC(=O)C(C)(c3ccc(-c4cccc(=O)n4C)cc3)N2)C(C)C)on1 (single isomer, unassigned) [Example 108.3]
150			Cc1ncsc1-c1ccc([C@]2(C)NC(C3C[C@@H](O)CN3C(=O)C(c3cc(O)no3)C(C)C)=NC2=O)cc1 (single isomer, unassigned) [Example 116.2]
150			Cc1ncsc1-c1ccc([C@]2(C)NC(C3C[C@@H](O)CN3C(=O)C(c3cc(O)no3)C(C)C)=NC2=O)cc1 (single isomer, unassigned) [Example 116.3]
≥ 150			CC(=O)N1CCC[C@H]1C(=O)N1C[C@H](O)CC1C1=NC(=O)[C@](C)(c2ccc(-c3scnc3C)cc2)N1 (single isomer, unassigned) [Example 121.2]
≥ 150			Cc1cc([C@@H](C(=O)N2C[C@H](O)C[C@H]2C2=NOC(C)(c3ccccc3)N2)C(C)C)on1 (single isomer, unassigned) [Example 128.2]
≥ 150			Cc1ncsc1-c1ccc([C@]2(C)NC(C3C[C@@H](O)CN3C(=O)[C@H]3CCCN3S(C)(=O)=O)=NC2=O)cc1 (single isomer, unassigned) [Example 120.1]
